Source: patent US20170334899A1, “AMINO-SUBSTITUTED ISOTHIAZOLES” (Bayer Pharma Aktiengesellschaft, priority 2014, published 2017)
Where “and” joins values, the source holds several entries; their conditions need not be identical. Equal entries are not always repeated.

biological target: T1, human kinase Mps-1 (Homo sapiens, UniProt P33981); assay: Mps-1 kinase assay (TR-FRET); type: biochemical; conditions: Mps-1 TR-FRET kinase assay; avg; read-out: Mps1 avg (IC50 [mol/l])
T1 construct: N-terminally GST-tagged human full length recombinant Mps-1 kinase; GST (N); purchased Invitrogen, Karslruhe, Germany PV4071
T1 sequence (P33981 1-857): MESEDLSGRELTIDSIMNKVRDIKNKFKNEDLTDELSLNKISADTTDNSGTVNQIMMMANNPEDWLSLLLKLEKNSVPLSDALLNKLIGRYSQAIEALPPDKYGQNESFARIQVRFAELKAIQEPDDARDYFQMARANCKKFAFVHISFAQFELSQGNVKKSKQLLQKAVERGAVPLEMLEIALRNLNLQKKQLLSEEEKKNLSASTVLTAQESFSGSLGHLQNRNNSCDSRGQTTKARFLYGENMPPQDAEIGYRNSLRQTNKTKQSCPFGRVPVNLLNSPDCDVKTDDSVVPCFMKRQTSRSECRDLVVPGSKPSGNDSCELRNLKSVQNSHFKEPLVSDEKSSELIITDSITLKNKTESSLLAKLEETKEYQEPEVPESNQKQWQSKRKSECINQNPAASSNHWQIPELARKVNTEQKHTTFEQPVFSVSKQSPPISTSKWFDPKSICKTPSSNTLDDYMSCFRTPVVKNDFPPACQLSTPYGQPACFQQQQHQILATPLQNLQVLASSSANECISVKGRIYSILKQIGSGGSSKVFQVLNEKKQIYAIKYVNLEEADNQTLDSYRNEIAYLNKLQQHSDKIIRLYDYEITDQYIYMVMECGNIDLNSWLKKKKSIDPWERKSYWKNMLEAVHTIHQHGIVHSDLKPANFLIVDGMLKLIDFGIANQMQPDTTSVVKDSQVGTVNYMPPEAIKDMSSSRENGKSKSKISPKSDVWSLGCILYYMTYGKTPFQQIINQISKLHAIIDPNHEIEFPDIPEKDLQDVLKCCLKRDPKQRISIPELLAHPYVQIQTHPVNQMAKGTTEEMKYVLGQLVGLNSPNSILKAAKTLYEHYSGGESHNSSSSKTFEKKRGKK
Summary of the method: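 Inhibition normalised between uninhibited reaction (0%) and enzyme-free wells (100%), using the blank-corrected TR-FRET 665/620 nm ratio after EDTA stop. Reaction: ~0.5 nM GST-Mps-1 full length, 10 μM ATP, 1 μM biotin-peptide, 60 min at 22 °C, after 15 min compound pre-binding, pH 7.7.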

IC50, 17 µM:
Cc1nsc(Nc2cc(C#N)ccn2)c1C(=O)Nc1ccc(OC2CCN(C(=O)OC(C)(C)C)CC2)nc1 [Example 23, tert-Butyl 4-({5-[({5-[(4-cyanopyridin-2-yl)amino]-3-methyl-1,2-thiazol-4-yl}-carbonyl)amino]pyridin-2-yl}oxy)piperidine-1-carboxylate]

IC50, > 20 µM:
CCNC(=O)c1cccc(NC(=O)c2c(C)nsc2Nc2ccc(C#N)cn2)c1 [Example 252, 5-[(5-cyanopyridin-2-yl)amino]-N-[3-(ethylcarbamoyl)phenyl]-3-methyl-1,2-thiazole-4-carboxamide]
Cc1nsc(Nc2cnc3ccccc3n2)c1C(=O)Nc1cccc(C(=O)NC(C)C)c1 [Example 253, N-[3-(isopropylcarbamoyl)phenyl]-3-methyl-5-(quinoxalin-2-ylamino)-1,2-thiazole-4-carboxamide]
Cc1nsc(Nc2cncc(C(F)(F)F)n2)c1C(=O)Nc1ccc(OCCO)nc1 [Example 276, N-[6-(2-hydroxyethoxy)pyridin-3-yl]-3-methyl-5-{[6-(trifluoromethyl)pyrazin-2-yl]amino}-1,2-thiazole-4-carboxamide]
Cc1nsc(Nc2cnc(C(F)(F)F)cn2)c1C(=O)Nc1ccc(F)c(OC2CCN(CCF)CC2)c1 [Example 266, N-(4-fluoro-3-{[1-(2-fluoroethyl)piperidin-4-yl]oxy}phenyl)-3-methyl-5-{[5-(trifluoromethyl)pyrazin-2-yl]amino}-1,2-thiazole-4-carboxamide]
Cc1nsc(Nc2cnc3ccccc3n2)c1C(=O)Nc1cccc(NS(=O)(=O)C2CCN(CC(F)(F)F)CC2)c1 [Example 281, 3-methyl-5-(quinoxalin-2-ylamino)-N-[3-({[1-(2,2,2-trifluoroethyl)piperidin-4-yl]sulfonyl}amino)phenyl]-1,2-thiazole-4-carboxamide]
Cc1nsc(Nc2cncc(C(F)(F)F)n2)c1C(=O)Nc1ccc(C(=O)N2CCN(CC(F)(F)F)CC2)cc1 [Example 272, 3-methyl-N-(4-{[4-(2,2,2-trifluoroethyl)piperazin-1-yl]carbonyl}phenyl)-5-{[6-(trifluoromethyl)pyrazin-2-yl]amino}-1,2-thiazole-4-carboxamide]
Cc1nsc(Nc2cnc(C(F)(F)F)cn2)c1C(=O)Nc1ccc(N(C)C)c(OCCCN(C)CCC(F)(F)F)c1 [Example 300, N-[4-(dimethylamino)-3-{3-[methyl(3,3,3-trifluoropropyl)amino]propoxy}phenyl]-3-methyl-5-{[5-(trifluoromethyl)pyrazin-2-yl]amino}-1,2-thiazole-4-carboxamide]
Cc1nsc(Nc2cncc(C(F)(F)F)n2)c1C(=O)Nc1ccc(F)c(OC2CCN(CC(F)F)CC2)c1 [Example 268, N-(3-{[1-(2,2-difluoroethyl)piperidin-4-yl]oxy}-4-fluorophenyl)-3-methyl-5-{[6-(trifluoromethyl)pyrazin-2-yl]amino}-1,2-thiazole-4-carboxamide]
Cc1nsc(Nc2cncc(C(F)(F)F)n2)c1C(=O)Nc1ccc(OC2CCN(CCC(F)(F)F)CC2)nc1 [Example 304, 3-methyl-5-{[6-(trifluoromethyl)pyrazin-2-yl]amino}-N-(6-{[1-(3,3,3-trifluoropropyl)piperidin-4-yl]oxy}pyridin-3-yl)-1,2-thiazole-4-carboxamide]
Cc1nsc(Nc2cncc(C(F)(F)F)n2)c1C(=O)Nc1ccc(OCCCO)nc1 [Example 278, N-[6-(3-hydroxypropoxy)pyridin-3-yl]-3-methyl-5-{[6-(trifluoromethyl)pyrazin-2-yl]amino}-1,2-thiazole-4-carboxamide]
Cc1nsc(Nc2cnc(C(F)(F)F)cn2)c1C(=O)Nc1ccc(F)c(OCC2CCN(CCF)C2)c1 (stereo not shown) [Example 317, N-(4-fluoro-3-{[1-(2-fluoroethyl)pyrrolidin-3-yl]methoxy}phenyl)-3-methyl-5-{[5-(trifluoromethyl)pyrazin-2-yl]amino}-1,2-thiazole-4-carboxamide]
Cc1nsc(Nc2cnc(C(F)(F)F)cn2)c1C(=O)Nc1ccc(OC2CCN(CCC(F)(F)F)C2)nc1 (stereo not shown) [Example 298, 3-methyl-5-{[5-(trifluoromethyl)pyrazin-2-yl]amino}-N-(6-{[1-(3,3,3-trifluoropropyl)pyrrolidin-3-yl]oxy}pyridin-3-yl)-1,2-thiazole-4-carboxamide]
Cc1nsc(Nc2cnc(C(F)(F)F)cn2)c1C(=O)Nc1ccc(OCCO)nc1 [Example 277, N-[6-(2-hydroxyethoxy)pyridin-3-yl]-3-methyl-5-{[5-(trifluoromethyl)pyrazin-2-yl]amino}-1,2-thiazole-4-carboxamide]
Cc1nsc(Nc2cnc(C(F)(F)F)cn2)c1C(=O)Nc1ccc(C(=O)NC2CN(CC(F)F)C2)cc1 [Example 271, N-(4-{[1-(2,2-difluoroethyl)azetidin-3-yl]carbamoyl}phenyl)-3-methyl-5-{[5-(trifluoromethyl)pyrazin-2-yl]amino}-1,2-thiazole-4-carboxamide]
Cc1nsc(Nc2cnc3ccccc3n2)c1C(=O)Nc1cccc(NS(=O)(=O)C2CCN(C(=O)OC(C)(C)C)CC2)c1 [Example 258, tert-butyl 4-{[3-({[3-methyl-5-(quinoxalin-2-ylamino)-1,2-thiazol-4-yl]carbonyl}amino)phenyl]sulfamoyl} piperidine-1-carboxylate]
Cc1nsc(Nc2cnc(C(F)(F)F)cn2)c1C(=O)Nc1ccc(F)c(OC2CCN(CC(F)(F)F)CC2)c1 [Example 264, N-(4-fluoro-3-{[1-(2,2,2-trifluoroethyl)piperidin-4-yl]oxy}phenyl)-3-methyl-5-{[5-(trifluoromethyl)pyrazin-2-yl]amino}-1,2-thiazole-4-carboxamide]
Cc1nsc(Nc2cnc(C(F)(F)F)cn2)c1C(=O)Nc1ccc(OCCCNCC(F)(F)F)nc1 [Example 292, 3-methyl-N-(6-{3-[(2,2,2-trifluoroethyl)amino]propoxy}pyridin-3-yl)-5-{[5-(trifluoromethyl)pyrazin-2-yl]amino}-1,2-thiazole-4-carboxamide]
COC(=O)CCc1cccc(NC(=O)c2c(C)nsc2Nc2cnc3ccccc3n2)c1 [Example 257, methyl 3-[3-({[3-methyl-5-(quinoxalin-2-ylamino)-1,2-thiazol-4-yl]carbonyl}amino)phenyl]propanoate]

IC50, > 20 µM and 11 µM:
Cc1nsc(Nc2cncc(C(F)(F)F)n2)c1C(=O)Nc1ccc(C(=O)NC2CN(CC(F)(F)F)C2)cc1 [Example 280, 3-methyl-N-(4-{[1-(2,2,2-trifluoroethyl)azetidin-3-yl]carbamoyl}phenyl)-5-{[6-(trifluoromethyl)pyrazin-2-yl]amino}-1,2-thiazole-4-carboxamide]

IC50, ≥ 20 µM:
Cc1nsc(Nc2cnc(C(F)(F)F)cn2)c1C(=O)Nc1ccc(F)c(OCCCN(C)CCC(F)(F)F)c1 [Example 303, N-(4-fluoro-3-{3-[methyl(3,3,3-trifluoropropyl)amino]propoxy}phenyl)-3-methyl-5-{[5-(trifluoromethyl)pyrazin-2-yl]amino}-1,2-thiazole-4-carboxamide]
Cc1nsc(Nc2cnc(C(F)(F)F)cn2)c1C(=O)Nc1ccc(F)c(OCC2CCN(CC(F)F)CC2)c1 [Example 308, N-(3-{[1-(2,2-difluoroethyl)piperidin-4-yl]methoxy}-4-fluorophenyl)-3-methyl-5-{[5-(trifluoromethyl)pyrazin-2-yl]amino}-1,2-thiazole-4-carboxamide]
CCN1CCC(Oc2ccc(NC(=O)c3c(C)nsc3Nc3cc(C#N)ccn3)cn2)CC1 [Example 26, 5-[(4-Cyanopyridin-2-yl)amino]-N-{6-[(1-ethylpiperidin-4-yl)oxy]pyridin-3-yl}-3-methyl-1,2-thiazole-4-carboxamide]
Cc1nsc(Nc2cnc(C(F)(F)F)cn2)c1C(=O)Nc1ccc(OCCNCCF)nc1 [Example 321, N-(6-{2-[(2-fluoroethyl)amino]ethoxy}pyridin-3-yl)-3-methyl-5-{[5-(trifluoromethyl)pyrazin-2-yl]amino}-1,2-thiazole-4-carboxamide]
Cc1nsc(Nc2cnc(C(F)(F)F)cn2)c1C(=O)Nc1ccc(OCCNCC(F)F)nc1 [Example 305, N-(6-{2-[(2,2-difluoroethyl)amino]ethoxy}pyridin-3-yl)-3-methyl-5-{[5-(trifluoromethyl)pyrazin-2-yl]amino}-1,2-thiazole-4-carboxamide]
